In PubChem BioAssay (NCI):
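Abbreviation: GI50, concentration required for 50% inhibition of growth. TGI denotes the concentration required for complete inhibition of growth.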

What was measured:
Assay in all cases: DTP human tumour cell line panel, 384-well format
[1] = system: PC-3 prostate
[2] = system: SF-268 CNS
[3] = system: HCT-116 colon
[4] = system: HCC-2998 colon
[5] = system: NCI-H322M lung
[6] = system: ACHN renal
[7] = system: OVCAR-3 ovarian
[8] = system: SF-539 CNS
[9] = system: SK-MEL-28 melanoma
[10] = system: SK-OV-3 ovarian
[11] = system: CCRF-CEM leukemia
[12] = system: M14 melanoma
[13] = system: SNB-75 CNS
[14] = system: NCI/ADR-RES ovarian
[15] = system: DU-145 prostate
[16] = system: A498 renal
[17] = system: MDA-MB-435 melanoma
[18] = system: CAKI-1 renal
[19] = system: MDA-MB-468 breast
[20] = system: MCF7 breast
[21] = system: IGROV1 ovarian
[22] = system: 786-0 renal
[23] = system: HS 578T breast
[24] = system: SK-MEL-2 melanoma
[25] = system: HCT-15 colon
[26] = system: NCI-H460 NSCLC
[27] = system: SW-620 colon
[28] = system: NCI-H522 lung
[29] = system: SN12C renal
[30] = system: NCI-H23 lung
[31] = system: HL-60(TB) leukemia
[32] = system: HOP-92 NSCLC
[33] = system: U251 glioblastoma
[34] = system: SK-MEL-5 melanoma
[35] = system: BT-549 breast
[36] = system: RXF 393 renal
[37] = system: OVCAR-8 ovarian
[38] = system: HT29 colon
[39] = system: KM12 colon
[40] = system: LOX IMVI melanoma
[41] = system: UACC-257 melanoma
[42] = system: MOLT-4 leukemia
[43] = system: K-562 leukemia
[44] = system: HOP-62 NSCLC
[45] = system: COLO 205 colon
[46] = system: TK-10 renal
[47] = system: SF-295 CNS
[48] = system: A549 NSCLC
[49] = system: EKVX NSCLC
[50] = system: RPMI-8226 leukemia
[51] = system: UACC-62 melanoma
[52] = system: MALME-3M melanoma
[53] = system: SNB-19 CNS
[54] = system: OVCAR-4 ovarian
[55] = system: NCI-H226 lung
[56] = system: SR leukemia
[57] = system: T-47D breast
[58] = system: OVCAR-5 ovarian
[59] = system: MDA-MB-231 breast

In the case of `N#Cc1ccc(OC(=O)Nc2cc(Cl)cc(Cl)c2)cc1`, the GI50 [1] is reported as 3.27 µM, the TGI [1] is reported as 7.27 µM and the GI50 [2] is reported as 5.61 µM. It also gave a TGI [2] of 21.6 µM, a GI50 [3] of 3.12 µM and a TGI [3] of 7.62 µM. The GI50 [4] was 13.2 µM, the TGI [4] was 30.8 µM and the GI50 [5] was 11.6 µM. The TGI [5] was 29.4 µM, the GI50 [6] was 3.51 µM and the TGI [6] was 10 µM. For the same compound, the GI50 [7] was 2.44 µM, the TGI [7] was 5.16 µM and the GI50 [8] was 4.28 µM. The TGI [8] was 13.4 µM, the GI50 [9] was 13.1 µM and the TGI [9] was 30.6 µM. It also gave a GI50 [10] of 6 µM, a TGI [10] of 19.9 µM and a GI50 [11] of 2.19 µM. For the same compound, the TGI [11] was 5.31 µM, the GI50 [12] was 5.38 µM and the TGI [12] was 15 µM. The GI50 [13] was 3.32 µM, the TGI [13] was 9.94 µM and the GI50 [14] was 3.79 µM. For the same compound, the TGI [14] was 9.65 µM, the GI50 [15] was 4.29 µM and the TGI [15] was 55.5 µM. It also gave a GI50 [16] of 3.47 µM, a TGI [16] of 9.21 µM and a GI50 [17] of 8.94 µM. It also gave a TGI [17] of 23.6 µM, a GI50 [18] of 3.69 µM and a TGI [18] of 10.2 µM. The GI50 [19] was 9.04 µM, the TGI [19] was 20.9 µM and the GI50 [20] was 3.75 µM. The TGI [20] was 16 µM, the GI50 [21] was 4.43 µM and the TGI [21] was 15.3 µM. For the same compound, the GI50 [22] was 7.03 µM, the TGI [22] was 20.1 µM and the GI50 [23] was 7.57 µM. The TGI [23] was 20.5 µM, the GI50 [24] was 2.84 µM and the TGI [24] was 5.82 µM. The GI50 [25] was 4.14 µM, the TGI [25] was 12.1 µM and the GI50 [26] was 2.84 µM. The TGI [26] was 6.62 µM, the GI50 [27] was 4.54 µM and the TGI [27] was 14.6 µM. For the same compound, the GI50 [28] was 3.23 µM, the TGI [28] was 7.63 µM and the GI50 [29] was 4 µM. It also gave a TGI [29] of 13.2 µM, a GI50 [30] of 2.23 µM and a TGI [30] of 4.16 µM. For the same compound, the GI50 [31] was 1.77 µM, the TGI [31] was 3.16 µM and the GI50 [32] was 3.23 µM. For the same compound, the TGI [32] was 7.12 µM, the GI50 [33] was 3.43 µM and the TGI [33] was 7.96 µM. For the same compound, the GI50 [34] was 4.36 µM, the TGI [34] was 13.2 µM and the GI50 [35] was 13.4 µM. It also gave a TGI [35] of 30.8 µM, a GI50 [36] of 6.26 µM and a TGI [36] of 17.7 µM. For the same compound, the GI50 [37] was 4.1 µM, the TGI [37] was 12.6 µM and the GI50 [38] was 4.43 µM. It also gave a TGI [38] of 17.3 µM, a GI50 [39] of 3.74 µM and a TGI [39] of 11 µM. It also gave a GI50 [40] of 3.81 µM, a TGI [40] of 12.7 µM and a GI50 [41] of 6.12 µM. For the same compound, the TGI [41] was 15.9 µM, the GI50 [42] was 2 µM and the TGI [42] was 3.7 µM. The GI50 [43] was 7.71 µM, the TGI [43] was 93.1 µM and the GI50 [44] was 3.03 µM. It also gave a TGI [44] of 6.05 µM, a GI50 [45] of 6.65 µM and a TGI [45] of 23.9 µM. For the same compound, the GI50 [46] was 4.01 µM, the TGI [46] was 13.1 µM and the GI50 [47] was 3.07 µM. For the same compound, the TGI [47] was 8.78 µM, the GI50 [48] was 3.78 µM and the TGI [48] was 12.7 µM. It also gave a GI50 [49] of 3.92 µM, a TGI [49] of 12.6 µM and a GI50 [50] of 2.04 µM. The TGI [50] was 3.48 µM, the GI50 [51] was 7.22 µM and the TGI [51] was 19.3 µM. It also gave a GI50 [52] of 5.9 µM, a TGI [52] of 16.4 µM and a GI50 [53] of 4.74 µM. It also gave a TGI [53] of 19.1 µM, a GI50 [54] of 8.27 µM and a TGI [54] of 62.2 µM. For the same compound, the GI50 [55] was 3.27 µM and the TGI [55] was 8.97 µM.
For `OCc1ccc(-c2nn(Cc3ccccc3)c3ccccc23)o1`, the GI50 [56] was 3.02 µM, the TGI [56] was 7.56 µM and the GI50 [1] was 19.7 µM. The TGI [1] was 37.3 µM, the GI50 [2] was 29.8 µM and the TGI [2] was 69.7 µM. It also gave a GI50 [4] of 20.1 µM, a TGI [4] of 34.9 µM and a GI50 [5] of 33 µM. The TGI [5] was greater than 100 µM, the GI50 [6] was 35 µM and the TGI [6] was 81.9 µM. The GI50 [7] was 9.85 µM, the TGI [7] was 21.9 µM and the GI50 [8] was 18.5 µM. It also gave a TGI [8] of 34.6 µM, a GI50 [9] of 24 µM and a TGI [9] of 41.4 µM. It also gave a GI50 [10] of 22.5 µM, a TGI [10] of 41.4 µM and a GI50 [11] of 18 µM. It also gave a TGI [11] of 32.3 µM, a GI50 [12] of 21.7 µM and a TGI [12] of 39.7 µM. For the same compound, the GI50 [13] was 17.2 µM, the TGI [13] was 35.1 µM and the GI50 [14] was 21 µM. The TGI [14] was 42.7 µM, the GI50 [15] was 17.4 µM and the TGI [15] was 32.8 µM. The GI50 [16] was 0.024 µM, the TGI [16] was 0.0655 µM and the GI50 [17] was 20.8 µM. For the same compound, the TGI [17] was 38 µM, the GI50 [57] was 9.48 µM and the TGI [57] was 34.1 µM. For the same compound, the GI50 [18] was 0.427 µM, the TGI [18] was 3.49 µM and the GI50 [19] was 0.181 µM. The TGI [19] was 0.328 µM, the GI50 [20] was 2.34 µM and the TGI [20] was greater than 100 µM. The GI50 [21] was 0.424 µM, the TGI [21] was 2.31 µM and the GI50 [22] was 34.5 µM. The TGI [22] was greater than 100 µM, the GI50 [23] was 20.3 µM and the TGI [23] was 42.8 µM. It also gave a GI50 [24] of 36.5 µM, a TGI [24] of 54.5 µM and a GI50 [25] of 23 µM. The TGI [25] was 49.6 µM, the GI50 [26] was 16.4 µM and the TGI [26] was 30.3 µM. It also gave a GI50 [27] of 20.2 µM, a TGI [27] of 41.5 µM and a GI50 [28] of 14.6 µM. For the same compound, the TGI [28] was 28.2 µM, the GI50 [29] was 50.1 µM and the TGI [29] was greater than 100 µM. The GI50 [30] was 25.3 µM, the TGI [30] was 53.1 µM and the GI50 [31] was 16.6 µM. It also gave a TGI [31] of 30.4 µM, a GI50 [32] of 16 µM and a TGI [32] of 30.8 µM. The GI50 [58] was 0.369 µM, the TGI [58] was 5.99 µM and the GI50 [33] was 13.3 µM. For the same compound, the TGI [33] was 28.1 µM, the GI50 [34] was 18.3 µM and the TGI [34] was 32.5 µM. For the same compound, the GI50 [35] was 17.4 µM, the TGI [35] was 31.5 µM and the GI50 [36] was 11.4 µM. For the same compound, the TGI [36] was 27.5 µM, the GI50 [37] was 23.5 µM and the TGI [37] was 47 µM. It also gave a GI50 [38] of 17.9 µM, a TGI [38] of 32.3 µM and a GI50 [39] of 18.6 µM. The TGI [39] was 34 µM, the GI50 [41] was 1.49 µM and the TGI [41] was 3.15 µM. For the same compound, the GI50 [42] was 12.1 µM, the TGI [42] was 24.7 µM and the GI50 [44] was 5.79 µM. The TGI [44] was 26.3 µM, the GI50 [45] was 18.6 µM and the TGI [45] was 36.5 µM. The GI50 [46] was 0.374 µM, the TGI [46] was 2.29 µM and the GI50 [47] was 46.6 µM. The TGI [47] was greater than 100 µM, the GI50 [48] was 19.8 µM and the TGI [48] was 44.9 µM. The GI50 [49] was 27.3 µM, the TGI [49] was 68.1 µM and the GI50 [50] was 9.64 µM. It also gave a TGI [50] of 21.3 µM, a GI50 [59] of 20.3 µM and a TGI [59] of 45.8 µM. It also gave a GI50 [51] of 1.97 µM, a TGI [51] of 31.4 µM and a GI50 [52] of 20.4 µM. For the same compound, the TGI [52] was 36.4 µM, the GI50 [53] was 46.2 µM and the TGI [53] was greater than 100 µM. For the same compound, the GI50 [54] was 23.5 µM, the TGI [54] was 49 µM and the GI50 [55] was 0.166 µM. The TGI [55] was 0.314 µM.
